# Target: Histamine H3 receptor (Rattus norvegicus) (UniProt Q9QYN8)
# Experiment: Ex-vivo effective dose required for rat histamine H3 receptor occupancy by the compound using [3H]R-alpha-methylhistamine upon subcutaneous administration
# Details: not given
# Chain of Histamine H3 receptor (Rattus norvegicus) (Q9QYN8 whole entry): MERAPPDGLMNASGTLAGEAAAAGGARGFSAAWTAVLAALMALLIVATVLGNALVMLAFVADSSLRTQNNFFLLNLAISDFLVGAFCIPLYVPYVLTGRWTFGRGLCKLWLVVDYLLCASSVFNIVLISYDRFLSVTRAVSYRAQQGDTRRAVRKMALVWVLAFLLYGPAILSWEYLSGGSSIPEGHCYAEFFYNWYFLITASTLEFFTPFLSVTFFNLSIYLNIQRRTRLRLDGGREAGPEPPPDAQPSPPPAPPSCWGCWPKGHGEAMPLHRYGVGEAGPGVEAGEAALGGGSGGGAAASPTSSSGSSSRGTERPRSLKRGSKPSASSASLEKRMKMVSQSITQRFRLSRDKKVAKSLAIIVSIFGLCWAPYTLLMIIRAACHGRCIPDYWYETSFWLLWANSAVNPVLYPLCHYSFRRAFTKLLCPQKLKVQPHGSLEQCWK
row,Compound,ED50 [mg/kg]
1,Cc1ccn2cc(-c3ccc(OCCCN4CCCCC4)cc3)nc2c1,0.2
2,S=C(NC1CCCCC1)N1CCC(c2cnc[nH]2)CC1,2

# Tested on: not listed separately
# Experiment: Half life in rat was tested
# Assay type: ADME, organism-based
# Details: in vivo
row,Compound,half-life [h]
1,Cc1ccn2cc(-c3ccc(OCCCN4CCCCC4)cc3)nc2c1,5.2

# Target: T1, Histamine H3 receptor (Homo sapiens, UniProt Q9Y5N1)
# T1 sequence (Q9Y5N1 whole entry): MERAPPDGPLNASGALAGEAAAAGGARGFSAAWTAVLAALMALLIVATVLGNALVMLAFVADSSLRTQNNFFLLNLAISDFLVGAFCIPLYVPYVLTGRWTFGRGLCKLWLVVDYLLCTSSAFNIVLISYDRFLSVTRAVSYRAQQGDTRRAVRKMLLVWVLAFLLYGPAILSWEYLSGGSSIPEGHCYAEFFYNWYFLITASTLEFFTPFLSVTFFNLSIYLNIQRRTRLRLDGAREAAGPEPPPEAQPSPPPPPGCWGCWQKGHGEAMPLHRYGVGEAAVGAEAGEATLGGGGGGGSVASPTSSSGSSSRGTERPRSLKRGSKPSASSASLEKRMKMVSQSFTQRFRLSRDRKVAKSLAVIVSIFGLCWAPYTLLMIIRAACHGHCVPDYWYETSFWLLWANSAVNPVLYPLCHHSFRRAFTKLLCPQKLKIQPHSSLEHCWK
# Experiment: Compound was tested for its binding affinity against human histamine H3 receptor
# Details: not given
row,Compound,Ki [nM]
1,CCCCN(CCCC)CCCOc1ccc(-c2cn3cccc(C)c3n2)cc1,4000

# Tested on: not listed separately
# Experiment: Oral bioavailability in rat
# Assay type: ADME, organism-based
# Details: in vivo, read-out: Bioavailabiility
row,Compound,bioavailability [%]
1,Cc1ccn2cc(-c3ccc(OCCCN4CCCCC4)cc3)nc2c1,57

# Target: T2, Histamine H3 receptor (Rattus norvegicus, UniProt Q9QYN8)
# T2 sequence (Q9QYN8 whole entry): as the sequence (Q9QYN8 whole entry) above
# Experiment: Antagonist activity for rat histamine H3 receptor was determined
# Assay type: functional
# Details: read-out: pA2 (converted)
row,Compound,Kb [nM]
1,Cc1ccn2cc(-c3ccc(OCCCN4CCCCC4)cc3)nc2c1,4.68

# Target: T2, Histamine H3 receptor
# Experiment: Compound was tested for its binding affinity for rat histamine H3 receptor
# Details: not given
row,Compound,Ki [nM]
1,Cc1ccn2cc(-c3ccc(OCCCN4CCCCC4)cc3)nc2c1,10

# Target: T1, Histamine H3 receptor
# Experiment: Binding affinity for human histamine H3 receptor
# Details: not given
row,Compound,Ki [nM]
1,Cc1cccn2cc(-c3ccc(OCCCN4CCCCC4)cc3)nc12,3
2,Cc1cccn2cc(-c3ccc(NS(=O)(=O)CCCN4CCCCC4)cc3)nc12,500
3,Cc1ccn2cc(-c3ccc(CCCCN4CCCCC4)cc3)nc2c1,17
4,Cc1cccn2cc(-c3ccc(OCCCN(C)C)cc3)nc12,13
5,Cc1ccn2cc(-c3ccc(OCCCN4CCCCC4)cc3C)nc2c1,2
6,Cc1ccn2cc(-c3ccc(OCCCN4CCCC4)cc3)nc2c1,5
7,Cc1cccn2cc(-c3ccc(OCCCN(C(C)c4ccccc4)C(C)c4ccccc4)cc3)nc12 (configuration not stated),4000
8,Cc1ccn2cc(-c3ccc(/C=C/CCN4CCCCC4)cc3)nc2c1,22
9,CCCCN(CCCC)CCCOc1ccc(-c2nc3c(C)cccn3c2C)cc1,870
10,Cc1ccn2cc(-c3ccc(C#CCCN4CCCCC4)cc3)nc2c1,7
11,CCCN(CCC)CCCOc1ccc(-c2cn3cccc(C)c3n2)cc1,43
12,Cc1cc(-c2cn3ccccc3n2)ccc1OCCCN1CCCCC1,28
13,Cc1cccn2cc(-c3ccc(OCCCN4CCOCC4)cc3)nc12,80
14,Cc1ccn2cc(-c3ccc(OCCCN4CCCCCC4)cc3)nc2c1,6
15,CCCCN(CCCC)CCCOc1ccc(-c2cn3cccc([N+](=O)[O-])c3n2)cc1,11000
16,Cc1cccn2cc(-c3ccc(NCCCN4CCCCC4)cc3)nc12,15
17,Cc1cccn2cc(-c3ccc(OCCCn4ccnc4)cc3)nc12,1000
18,c1ccn2cc(-c3ccc(OCCCN4CCCCC4)cc3)nc2c1,6
19,Cc1cccn2cc(-c3ccc(NC(=O)CCN4CCCCC4)cc3)nc12,300
20,COc1cc(-c2cn3ccc(C)cc3n2)ccc1OCCCN1CCCCC1,69

# — ChEMBL document CHEMBL1134971, “Novel human histamine H(3) receptor antagonists” (Bioorg Med Chem Lett, 2002)
